Source: PubChem BioAssay AID588339 (The Scripps Research Institute Molecular Screening Center, 2011)
Activity calls are given as the source filed them. No rule for the calls is given here.

System: TLR9-MyD88 CHO cells, cytotoxicity, luminescence
Assay: cytotoxicity in TLR9-MyD88 CHO cells, dose response, cytotoxicity control for TLR9-MyD88 binding inhibitor project, cell-based, luminescence (AID 588339)

SMILES	IC50
C[CH2][Hg][S]c1ccccc1C(=O)O	0.921 µM
COc1cc(/C=C/C(=O)/C=C(O)/C=C/c2ccc(O)c(OC)c2)ccc1O	34.6 µM (inactive)
